Where a name gives a salt, the structure may show the parent alone.
Molecular target: T1, GABAB receptor (Mus musculus, UniProt Q80T41+Q9WV18)
T1 construct: a mouse brain cortex membrane (4 μg); tissue Japan SLC, Inc. (ddY mice); host or cells: mouse brain cortex membrane
Test: [35S]GTPγS binding test for PAM action, mouse brain cortical membrane
Assay type: biochemical
Conditions: 100 μM GABA = 100%; for EC50: concentration raising reaction rate from 20% with 0.3 μM GABA to 50%, mouse brain cortex membrane, read-out: Potency (PAM Potency of GABAB); for Emax: read-out: Efficacy (PAM Efficacy of GABAB)
Description: The function of the GABAB receptor of the compound of the present invention was evaluated using a [^35S] GTPγS binding test. This method is used for the detection of the PAM action of the compound on the GABAB receptor (Journal of Pharmacology and Experimental Therapeutics, 2003, vol. 307(1), p. 322-330; and Molecular Pharmacology, 2001, vol. 60(5), p. 963-971).
The mouse brain cortical membrane was prepared with reference to a method for preparing a rat brain membrane (European Journal of Pharmacology, 1990, vol. 187 (1), p. 27-38).
The cortex (about 30 g) was cut out of the brains of 90 ddY mice (Japan SLC, Inc.). An A buffer was added to the cortex (cortex/A buffer=about 1:3 (wt/vol)), and homogenized with a glass Teflon-lined homogenizer (Teflon: registered trademark) on ice. The homogenate was centrifuged (750 g, 10 min, 4° C.) and a supernatant was then obtained. An A buffer (90 mL) was added to pellets and homogenized on ice, and a supernatant (750 g, 10 min, 4° C.) was then obtained. By repeating this operation, the supernatant was collected.
The supernatant was centrifuged (18000 g, 15 min, 4° C.). Ultrapure water (54 mL) was added to the pellets, left to stand for 30 min on ice, and then centrifuged (39000 g, 20 min, 4° C.). The pellets were suspended in a KH buffer (54 mL), repeatedly frozen and thawed, and centrifuged (18000 g, 15 min) at 4° C. The buffer was added to the pellets and then frozen and thawed, and this operation was repeated until the centrifugation. By a Bradford method using a protein assay (Protein assay CBB solution; Nacalai Tesque, Inc.), a KH buffer suspension of the pellet was prepared at a protein concentration of 10 mg/mL.
The PAM action of the GABAB receptor in the mouse brain cortex of a test drug was evaluated. To each of wells of a 96-well microplate, a test drug diluted with a B buffer at each concentration (3 nM to 30 μM), a mouse brain cortex membrane (4 μg), [^35S] GTPγS (final concentration of 0.34 nM, Muromachi Yakuhin Co., Ltd.; Institute of Isotopes Co., Ltd.), GABA (final concentration of 0.3 μM; Sigma) were added in this order, followed by standing at room temperature for 1 hour. With a harvester (Filtermate, Perkin-Elmer, Inc.), the suspension was suction-filtered through a glass filter (UniFilter 96-well GF/B filter plates, Perkin-Elmer, Inc.). The glass filter was washed with a C buffer that had been ice-cooled. After drying the glass filter, a liquid scintillation cocktail (50 μL, MicroScinti-PS; PerkinElmer, Inc.) was added to each well. The amount of [^35S] GTPγS bound to the membrane was measured on a plate reader (TopCount, PerkinElmer, Inc.).
The maximum reaction rate of 100 μM GABA was taken as 100%. […] At a time when the test drug was not added, the concentration of the test drug that increased the reaction rate from 20% with 0.3 μM GABA to 50% was taken as a PAM Potency (μM) of the GABAB of the test drug. In the presence of 0.3 μM GABA, the maximum reaction rate of the effect on the GABAB receptor when the test drug was administered up to maximum 30 μM was taken as a PAM Efficacy (%) of the GABAB of the test drug.
The Potency and Efficacy of several representative Example Compounds of the present invention are shown in Table below (In the Table, Ex represents Example Compound No. The “Potency” represents the PAM Potency of GABAB of the test drug, and the “Efficacy” represents PAM Efficacy (%) of GABAB of the test drug. These shall apply hereinafter).

[1] = maximum reaction rate in presence of 0.3 μM GABA, test drug up to 30 μM

T1 sequence (Q9WV18 20-960): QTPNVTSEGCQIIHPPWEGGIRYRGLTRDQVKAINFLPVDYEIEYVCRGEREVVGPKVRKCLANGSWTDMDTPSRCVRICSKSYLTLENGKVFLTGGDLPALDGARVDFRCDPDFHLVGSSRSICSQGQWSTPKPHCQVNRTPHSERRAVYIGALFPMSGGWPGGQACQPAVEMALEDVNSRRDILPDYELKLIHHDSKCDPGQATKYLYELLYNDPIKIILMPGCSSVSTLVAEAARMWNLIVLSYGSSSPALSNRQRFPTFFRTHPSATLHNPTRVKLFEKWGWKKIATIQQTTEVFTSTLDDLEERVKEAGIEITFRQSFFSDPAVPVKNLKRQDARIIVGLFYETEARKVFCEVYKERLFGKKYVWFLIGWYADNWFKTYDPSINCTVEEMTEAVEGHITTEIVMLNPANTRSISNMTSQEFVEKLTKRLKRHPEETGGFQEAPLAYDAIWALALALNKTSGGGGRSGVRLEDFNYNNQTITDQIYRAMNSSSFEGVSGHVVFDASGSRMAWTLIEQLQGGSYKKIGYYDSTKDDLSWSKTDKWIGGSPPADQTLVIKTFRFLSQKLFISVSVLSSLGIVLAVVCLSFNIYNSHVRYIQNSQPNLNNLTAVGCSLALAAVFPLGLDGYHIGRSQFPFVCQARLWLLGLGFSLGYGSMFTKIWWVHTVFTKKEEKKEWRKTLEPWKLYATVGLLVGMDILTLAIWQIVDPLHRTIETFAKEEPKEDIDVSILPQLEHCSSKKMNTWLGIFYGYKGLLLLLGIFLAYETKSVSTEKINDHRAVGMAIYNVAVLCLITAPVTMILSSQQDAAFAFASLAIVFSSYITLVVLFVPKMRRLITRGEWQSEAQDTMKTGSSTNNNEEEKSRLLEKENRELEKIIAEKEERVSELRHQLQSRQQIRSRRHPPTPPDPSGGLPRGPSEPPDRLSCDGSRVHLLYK
T1 sequence (Q80T41 41-940): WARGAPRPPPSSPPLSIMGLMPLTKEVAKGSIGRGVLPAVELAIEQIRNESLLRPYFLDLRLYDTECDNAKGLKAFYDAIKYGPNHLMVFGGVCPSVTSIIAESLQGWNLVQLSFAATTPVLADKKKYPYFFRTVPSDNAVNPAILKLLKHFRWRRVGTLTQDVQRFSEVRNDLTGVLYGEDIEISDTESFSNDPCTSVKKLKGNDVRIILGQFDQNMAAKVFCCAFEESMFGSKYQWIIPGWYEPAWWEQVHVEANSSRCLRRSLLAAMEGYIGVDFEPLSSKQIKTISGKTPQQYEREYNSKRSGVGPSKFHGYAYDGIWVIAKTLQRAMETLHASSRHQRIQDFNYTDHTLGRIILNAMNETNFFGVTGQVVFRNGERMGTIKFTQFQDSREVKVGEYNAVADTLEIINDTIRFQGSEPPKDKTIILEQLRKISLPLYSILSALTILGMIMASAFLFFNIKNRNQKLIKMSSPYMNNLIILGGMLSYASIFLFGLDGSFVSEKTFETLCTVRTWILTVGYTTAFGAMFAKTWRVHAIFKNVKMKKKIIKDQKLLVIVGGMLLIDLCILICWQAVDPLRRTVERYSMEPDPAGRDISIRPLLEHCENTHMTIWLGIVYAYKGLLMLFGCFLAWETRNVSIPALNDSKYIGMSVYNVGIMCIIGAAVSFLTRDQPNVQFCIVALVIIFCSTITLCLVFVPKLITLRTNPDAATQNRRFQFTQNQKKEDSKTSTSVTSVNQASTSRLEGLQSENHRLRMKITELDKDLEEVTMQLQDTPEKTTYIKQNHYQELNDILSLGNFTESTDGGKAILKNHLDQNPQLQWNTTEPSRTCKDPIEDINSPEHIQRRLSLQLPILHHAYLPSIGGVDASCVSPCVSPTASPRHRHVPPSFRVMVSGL

| EC50 | Emax [1] | Efficacy (PAM Efficacy of GABAB) [1] | Compound |
| --- | --- | --- | --- |
| 530 nM | 203% |  | Cc1nc(CN2CCOC(C)(C)C2)c2cc(C3CCC(C)(C)CC3)sc2n1 [Ex40] |
| 59 nM | 180% |  | CC(=O)N1CCN(Cc2nc(C)nc3sc(C4CCC(C)(C)CC4)cc23)C(C)(C)C1 [Ex153, 1-(4-{[6-(4,4-dimethylcyclohexyl)-2-methylthieno[2,3-d]pyrimidin-4-yl]methyl}-3,3-dimethylpiperazin-1-yl)ethanone hydrochloride] |
| 79 nM | 218% |  | Cc1nc(CN2CC[C@@H](O)[C@](C)(O)C2)c2cc(C3CCC(C)(C)CC3)sc2n1 [Ex104] |
| 200 nM | 161% |  | Cc1nc(CN2CCC(O)(CO)CC2)c2cc(C3CCC(C)(C)CC3)sc2n1 [Ex4] |
| 120 nM | 168% |  | Cc1nc(CN2CCN(C)CC2(C)C)c2cc(C3CCC(C)(C)CC3)sc2n1 [Ex151] |
| 89 nM | 289% |  | Cc1nc(CN2CCC[C@@H](O)C2)c2cc(C3CCC(C)(C)CC3)sc2n1 [Ex72] |
| 180 nM | 188% |  | COC1(CO)CCN(Cc2nc(C)nc3sc(C4CCC(C)(C)CC4)cc23)CC1 [Ex46] |
| 320 nM | 88% |  | Cc1nc(CN2CC[C@@H](O)[C@@H](O)C2)c2cc(C3CCC(C)(C)CC3)sc2n1 [Ex54] |
| 230 nM | 377% |  | Cc1nc(CN2CCC(O)(C(F)(F)F)CC2)c2cc(C3CCC(C)(C)CC3)sc2n1 [Ex12] |
| 170 nM | 259% |  | Cc1nc(CN2CCC(O)CC2)c2cc(C3CCC(C)(C)CC3)sc2n1 [Ex52, 1-{[6-(4,4-dimethylcyclohexyl)-2-methylthieno[2,3-d]pyrimidin-4-yl]methyl}piperidin-4-ol hydrochloride] |
| 200 nM | 176% |  | Cc1nc(CN2CCS(=O)(=O)CC2)c2cc(C3CCC4(CC3)CC4)sc2n1 [Ex108, 4-[(1,1-dioxidothiomorpholin-4-yl)methyl]-2-methyl-6-(spiro[2.5]octa-6-yl)thieno[2,3-d]pyrimidine] |
| 7.1 nM | 214% |  | Cc1nc(CN2CCC(O)CC2(C)C)c2cc(C3CCC(C)(C)CC3)sc2n1 (stereo not drawn) [Ex142] |
| 250 nM | 175% |  | Cc1nc(CN2CCC(F)(F)CC2)c2cc(C3CCC(C)(C)CC3)sc2n1 [Ex55] |
| 190 nM | 244% |  | Cc1nc(CN2CCSCC2)c2cc(C3CCC(C)(C)CC3)sc2n1 [Ex74] |
| 46 nM | 230% |  | Cc1nc(CN2CCOCC2(C)C)c2cc(C3CCC(C)(C)CC3)sc2n1 [Ex79] |
| 240 nM | 176% |  | Cc1nc(CN2CC[C@@H](O)[C@H](O)C2)c2cc(C3CCC(C)(C)CC3)sc2n1 [Ex5] |
| 260 nM | 238% |  | CCC1(O)CCN(Cc2nc(C)nc3sc(C4CCC(C)(C)CC4)cc23)CC1 [Ex48] |
| 110 nM | 338% |  | Cc1nc(CN2CCC(O)C(CO)C2)c2cc(C3CCC(C)(C)CC3)sc2n1 (stereo not drawn) [Ex127] |

| EC50 | Emax [1] | Efficacy (PAM Efficacy of GABAB) [1] | Compound |
| --- | --- | --- | --- |
| 440 nM | 134% |  | Cc1nc(CN2CCCC(C)(C)C2)c2cc(C3CCC(C)(C)CC3)sc2n1 [Ex45] |
| 400 nM | 127% |  | Cc1nc(CN2CCOC[C@@H]2CO)c2cc(C3CCC(C)(C)CC3)sc2n1 [Ex102] |
| 100 nM | 258% |  | Cc1nc(CN2CCC(O)C(C)(C)C2)c2cc(C3CCC(C)(C)CC3)sc2n1 (stereo not drawn) [Ex146] |
| 240 nM | 139% |  | Cc1nc(CN2CCC(CO)(CO)CC2)c2cc(C3CCC(C)(C)CC3)sc2n1 [Ex7] |
| 420 nM | 165% |  | Cc1nc(CN2C[C@@H](C)O[C@@H](C)C2)c2cc(C3CCC(C)(C)CC3)sc2n1 [Ex39] |
| 120 nM | 240% |  | Cc1nc(CN2CCC(C)(O)CC2)c2cc(C3CCC(C)(C)CC3)sc2n1 [Ex47] |
| 240 nM | 160% |  | Cc1nc(CN2CCC(C(F)F)CC2)c2cc(C3CCC(C)(C)CC3)sc2n1 [Ex61] |
| 1200 nM | 182% |  | Cc1nc(CN2CC[C@@H](O)[C@@H](F)C2)c2cc(C3CCC(C)(C)CC3)sc2n1 [Ex143] |
| 270 nM | 119% |  | Cc1nc(CN2CCC(C)(C)CC2)c2cc(C3CCC(C)(C)CC3)sc2n1 [Ex44] |
| 180 nM |  | 191% | Cc1nc(CN2CC[C@@H](O)[C@H](O)C2)c2cc(C3CCC(C)(C)CC3)sc2n1 (single isomer, unassigned) [Ex31-1, trans-1-{[6-(4,4-dimethylcyclohexyl)-2-methylthieno[2,3-d]pyrimidin-4-yl]methyl}piperidine-3,4-diol] |
| 85 nM | 272% |  | Cc1nc(CN2CCC[C@H](O)C2)c2cc(C3CCC(C)(C)CC3)sc2n1 [Ex73] |
| 150 nM | 249% |  | Cc1nc(CN2CCC(O)C(F)C2)c2cc(C3CCC(C)(C)CC3)sc2n1 (stereo not drawn) [Ex51] |
| 380 nM | 134% |  | Cc1nc(CN2CCOC[C@H]2CO)c2cc(C3CCC(C)(C)CC3)sc2n1 [Ex101] |
| 150 nM | 218% |  | Cc1nc(CN2CCOCC2)c2cc(C3CCC(C)(C)CC3)sc2n1 [Ex132] |
| 540 nM | 222% |  | COCC1(O)CCN(Cc2nc(C)nc3sc(C4CCC(C)(C)CC4)cc23)CC1 [Ex50] |
| 260 nM | 118% |  | Cc1nc(CN2CCC3(CC2)CC3)c2cc(C3CCC(C)(C)CC3)sc2n1 [Ex43] |
| 310 nM | 182% |  | Cc1nc(CN2CC[C@H](O)[C@@H](F)C2)c2cc(C3CCC(C)(C)CC3)sc2n1 [Ex144] |
| 46 nM | 159% |  | Cc1nc(CN2CCN(C(=O)CO)CC2(C)C)c2cc(C3CCC(C)(C)CC3)sc2n1 [Ex155, 1-(4-{[6-(4,4-dimethylcyclohexyl)-2-methylthieno[2,3-d]pyrimidin-4-yl]methyl}-3,3-dimethylpiperazin-1-yl)-2-hydroxyethanone] |
